# “And” between values parts separate entries of the source, which are not always exact repeats. Equal entries are not always repeated.
# What was measured:
# [1] = Membrane fusion experiment using MLV, change in fluorescence (F value, NBD-PE to Rh-PE energy transfer); settings: for membrane fusion of MLV (in words): from F value over time
# Source text: Examples of means for evaluating and observing a phase transition such as fusion of the membranes include observation by electron microscope, quantification of the produced pseudo-ceramide (for example, by mass spectrometry), and measurement of the change in fluorescence. In the case of measuring changes in fluorescence, a compound which causes a fluorescence energy transfer to another compound that present in the vicinity of the compound is introduced as a component of the bilayer membrane. Examples of such compounds include the combination of 1,2-dimyristyl-sn-glycero-3-phosphoethanolamine-N-(7-nitro-2-1,3-benzoxadiazol-4-yl) (NBD-PE) and 1,2-dimyristyl-sn-glycero-3-phosphoethanolamine-N-(lissamine rhodamine B sulfonyl) (Rh-PE). The former is the energy donor, and the latter is the energy acceptor. […] As for evaluating changes in the fluorescence, it is possible to use the fluorescence change F that is obtained by:
# For example, when NBD-PE and Rh-PE are included in separate vesicles, the F value increases by fusion of the vesicles. To the contrary, when a vesicle including both NBD-PE and Rh-PE fuses with a vesicle including neither, the distance between the NBD-PE and Rh-PE increases so that the F value decreases.
# First, 1 mL each of the MLV dispersions that contain a tertiary amine (C8 or C16) obtained in Example 1 were mixed at room temperature. A solution of 2-chloro-4,6-dimethoxy-1,3,5-triazin (CDMT) (150 mM or 300 mM) in methanol (21.7 μL) was added thereto, and allowed to stand at room temperature. Next, to the MLV dispersion obtained in Example 2, a solution of 4-(4,6-dimethoxy-1,3,5-triazin-2-yl)-4-methylmorpholium chloride (DMT-MM) (225 mM or 300 mM) in methanol (21.7 μL), which is a water-soluble dehydrating condensing agent, was added to prepare a mixture. As a control experiment, a mixture to which 21.7 μL of methanol was added instead of the CDMT solution was prepared.
# The change in fluorescence over time of the prepared mixtures was measured with a fluorometer. The excitation wavelength was 470 nm. As mentioned above, the F value was used as the criterion for the change in fluorescence.
# [2] = Observation of SUV by transmission electron microscope; settings: SUV with sodium laurate and C16-tertiary amine
# Experimental: A SUV dispersion of the composition shown in Table 8 was prepared in accordance with the SUV preparation method described in Example 6.
# To 200 μL of the prepared SUV dispersion, 4.3 μL of CDMT (300 mM in methanol) was added, and allowed to stand at room temperature. As a control experiment, 4.3 μL of methanol was added instead of CDMT, and allowed to stand at room temperature. Several drops of the SUV dispersion after standing were placed on a carrier, frozen with liquid nitrogen, and prepared specimens for electron microscopy (replicas) by a freeze fracturing method ordinarily performed by those skilled in the art (JEOL JFD-9010 was used). The specimens obtained were observed by TEM (JEOL JEM-1010) (acceleration voltage 100 kv). The arrows in the micrographs indicate the SUV.
# [3] = Membrane fusion experiment using SUV (F value); settings: SUV with C16-tertiary amine
# Experimental: Sodium laurate (45.0 mM in methanol, 5.8 μL), the dihydric alcohol 1B (38.5 mM in chloroform, 6.8 μL), C16-tertiary amine (3.05 mM in chloroform, 17.0 μL), nonreduced egg yolk lecithin (13.0 mM in chloroform, 19.0 μL), and a fluorescent agent (for NBD-PE: 1.23 mM in chloroform, 10.6 μL; for Rh-PE: 4.19 mM in chloroform, 3.1 μL) were placed into a 20-mL eggplant-shaped flask, and the solvent was evaporated under reduced pressure using a rotary evaporator. The thin film formed on the inner well of the flask was further dried under reduced pressure using a vacuum pump (room temperature, 0.5 hours). Then, 4 mL of phosphate buffer (5 mM NaH2PO4/Na2HPO4, 0.15 M NaCl, pH 8.5) was added thereto, and ultrasonic waves were applied for 30 seconds using a bath-type ultrasonic wave generation device. Next, the mixture was stirred and shaken for 10 minutes with a vortex mixer at 100% strength. […]
# Using the SUV dispersion containing NBD-PE and Rh-PE obtained in Example 6, the change in fluorescence over time was measured in the same way as in the membrane fusion experiment with MLV of Example 3. The F value was calculated from the intensity of the fluorescence peaks to evaluate SUV fusion.
# [4] = Leaking of aqueous phase within SUV accompanying fusion (calcein); settings: with fusion, CDMT 50 equivalents
# Experimental: Accordingly, in this example, by utilizing the property of the compound, a fusion test was performed for liposomes in which (in the inner aqueous phase) calcein has been contained at a high concentration in advance.
# The SUV was prepared according to the method described in Example 6. However, the calcein (75 mM) was added to a phosphate buffer (5 mM NaH2PO4/Na2HPO4, 0.15 M NaCl, pH 8), and ultrasonic wave treatment was performed to produce SUVs. The SUVs were separated by gel filter (Sephadex G-50, using the same phosphate buffer solution in the mobile phase) to remove the calcein present in the outside aqueous phase, giving a SUV dispersion.
# CDMT (50 equivalents) was added to the obtained SUV dispersion, and allowed to stand at room temperature and the fluorescence (520 nm) was measured (FS) after a given time, and immediately after Triton X-100 (10%, 200 μL) was added to destroy the SUV, and then the fluorescence was measured again (FT). […] The rate of leakage was calculated by the following equation.
# [formula] • F0: Fluorescence intensity at 0 hours • FS: Fluorescence intensity at each hour • FT: Fluorescence intensity after adding Triton X-100
# [5] = Fusion experiment between active SUV and inactive SUV (fluorescence dilution); settings: CDMT 35 equivalents; runs 2 and 3, one SUV inactive
# Experimental: In accordance with the fluorescence dilution method described in Example 8, 0.2 mL of the prepared SUV dispersion with a fluorescent agent and 1.8 mL of the SUV dispersion without a fluorescent agent were mixed at room temperature. […] Then, 15.2 μL (4.55 μmol: 35 equivalents of the total fatty acid salt of run 1) of CDMT (300 mM in methanol) was added thereto, allowed to stand at room temperature, and the change in the F values over time was measured with a fluorometer.
# [6] = Change in particle size accompanying SUV fusion (DLS); settings: for Z average (average diameter): CDMT 50 equivalents; for number of SUVs fused, from change in particle size: about 3 hours
# Experimental: SUV dispersions with the compositions shown in Table 6 were prepared in accordance with the SUV preparation method described in Example 6.
# The prepared SUV dispersions were filtered through a 0.45-μm pore size filter and each was divided into two 2 mL samples, one of which was supplied with 21.7 μL (50 equivalents) of CDMT (300 mM in methanol) and the other supplied with 21.7 μL of methanol as a control experiment, and allowed to stand at room temperature. The particle size after three hours was measured by DLS.
# [7] = Change in particle size accompanying MLV fusion (DLS); settings: MLV with C8-tertiary amine 0.2 equivalent, CDMT 50 equivalents
# Experimental: The MLV dispersion prepared was separated into 2 mL portions, and 50 equivalents (21.7 μL) CDMT (300 mM in methanol) was added thereto. For the control, 21.7 μL of methanol was added. Two samples were prepared and the particle size after 12 hours was measured by dynamic light scattering (DLS).
# [8] = SUV membrane fusion by fluorescence dilution method; settings: CDMT 25 or 50 equivalents; SUV with and without fluorescent agent
# Experimental: An SUV dispersion with a fluorescent agent and an SUV dispersion without a fluorescent agent, of the compositions shown in Table 5 were prepared according to the SUV preparation method described in Example 6.
# First, 0.2 mL of the prepared SUV dispersion with a fluorescent agent and 1.8 mL of the SUV dispersion without a fluorescent agent were mixed at room temperature. Three samples were prepared for each SUV. To two of these samples 10.8 μL (25 equivalents) or 21.7 μL (50 equivalents) of CDMT (300 mM in methanol) was added respectively, and allowed to stand at room temperature. As a control experiment, 21.7 μL of methanol was added to the remaining sample, and also allowed to stand, and then the fluorescence was measured at a given time interval.
# Unlike the mixing method of Example 7, in the case of the fluorescence dilution method of Example 8, the F value becomes smaller as fusion proceeds. […] It should be noted that in the graph of FIG. 5, it appears as if at initial state there is a difference between the control sample and the samples to which CDMT has been added.
# [9] = Solubility in the phosphate buffer used in the examples; assay type: physicochemical; settings: aqueous buffer, buffer 5 mM NaH2PO4, 0.15 M NaCl, pH 7.5, read-out: solubility against the buffer
# Experimental: The solubility of the dihydric alcohol 1A against the buffer (5 mM NaH2PO4, 0.15 M NaCl, pH 7.5) used in the examples was about 10 mM.
# The solubility of the dihydric alcohol 1B against the buffer (5 mM NaH2PO4, 0.15 M NaCl, pH 7.5) used in the examples was about 0.2 mM.
smiles,measurement,setting,value
"COc1nc(Cl)nc(OC)n1 [CDMT, 2-chloro-4,6-dimethoxy-1,3,5-triazin]",Change in fluorescence (F value),"[1]; CDMT 25 equivalents, C16 tertiary amine in MLV, 2 hr",1.64
same,Change in fluorescence (F value),"[1]; CDMT 25 equivalents, C16 tertiary amine in MLV, 5 hr",8.10
same,Change in fluorescence (F value),"[1]; CDMT 50 equivalents, C8 tertiary amine in MLV, 5 hr",2.22
same,Change in fluorescence (F value),"[1]; CDMT 50 equivalents, C8 tertiary amine in MLV, 12 hr",5.40
same,Change in fluorescence (F value),"[1]; CDMT 50 equivalents, C16 tertiary amine in MLV, 2 hr",4.41
same,Change in fluorescence (F value),"[1]; CDMT 50 equivalents, C16 tertiary amine in MLV, 5 hr",10.4
same,membrane fusion of MLV (in words),[1],membrane fusion occurs
same,particle size by TEM after CDMT addition,[2],greater than 1 μm
same,"SUV membrane fusion (F value, FIG. 4, in words)",[3],membrane fusion occurred
same,Rate of leakage,[4]; 1 hr,6.5%
same,Rate of leakage,[4]; 2 hr,7.1%
same,Rate of leakage,[4]; 3 hr,8% and 8.3%
same,"change in F value, active/inactive SUV combinations (FIG. 9, in words)",[5],the F value significantly changes
same,Z average (average diameter),"[6]; SUV with lauric acid, 0 hr",92.7 nm
same,Z average (average diameter),"[6]; SUV with lauric acid, 3 hr",218.7 nm
same,Z average (average diameter),"[6]; SUV with oleic acid, 0 hr",66.1 nm
same,Z average (average diameter),"[6]; SUV with oleic acid, 3 hr",213.8 nm
same,"number of SUVs fused, from change in particle size",[6]; laurate SUV,10 to 20
same,"number of SUVs fused, from change in particle size",[6]; oleate SUV,30 to 40
same,Z average (average diameter),[7]; 0 hr,235.2 nm and 232.4 nm
same,Z average (average diameter),[7]; 12 hr,280.3 nm and 278.2 nm
same,"change in fluorescence, fluorescence dilution method (FIG. 5, in words)",[8],a decrease in the fluorescence was found
"COc1nc(OC)nc([N+]2(C)CCOCC2)n1.[Cl-] [DMT-MM, 4-(4,6-dimethoxy-1,3,5-triazin-2-yl)-4-methylmorpholium chloride]",Change in fluorescence (F value),"[1]; DMT-MM 38 equivalents, MLV without tertiary amine, 36 hr",1.42
same,Change in fluorescence (F value),"[1]; DMT-MM 50 equivalents, MLV without tertiary amine, 36 hr",1.64
same,membrane fusion of MLV (in words),[1],membrane fusion occurred extremely slowly
"CCCCCCCCNCC(O)CO (stereo not drawn) [dihydric alcohol 1A, 3-octylamino-1,2-propanediol]",solubility,[9],~10 mM
"CCCCCCCCCCCCNCC(O)CO (stereo not drawn) [dihydric alcohol 1B, 3-dodecylamino-1,2-propanediol]",solubility,[9],~0.2 mM

# — patent US10098841B2, “Method of inducing a phase transition of a bilayer membrane vesicle” (Japan Science and Technology Agency, priority 2005, dated 2018)
